Literature values, collected in patent publication US6955827B2, “Method of controlling release of antimicrobial agents in chewing gum” (Wm. Wrigley Jr. Company, priority 1997, dated 2005).

Conditions: at 25° C.
In the case of `CCCCCCCCCCCCCCCC[n+]1ccccc1` [Cetylpyridinium chloride, cetylpyridinium chloride], the water solubility is given as 33%.
For `N=C(NCCCCCCNC(=N)NC(=N)Nc1ccc(Cl)cc1)NC(=N)Nc1ccc(Cl)cc1.O=C(O)[C@H](O)[C@@H](O)[C@H](O)[C@H](O)CO.O=C(O)[C@H](O)[C@@H](O)[C@H](O)[C@H](O)CO` [Chlorhexidine digluconate, chlorhexidine digluconate], the water solubility is listed as 50%.
For `CCCCCCc1ccc(O)cc1O` [Hexylresorcinol, hexylresorcinol], the water solubility is given as “about 0.05%”.
In the case of `Oc1cc(Cl)ccc1Oc1ccc(Cl)cc1Cl` [Triclosan, 2,4,4-trichloro-2-hydroxydiphenyl ether], the water solubility is given as “about 0.05%”.
